Test [1] addresses T1, Skp1^F139A (Homo sapiens, UniProt P63208, F139A).
T1 construct: His6; made in house; host or cells: Escherichia coli BL21 (DE3)
Briefly: LC-MS/MS analysis of in vitro binding. To be noted: Skp1^F139A mutant, overnight incubation.

The target of test [2] is T2, Skp1^WT (Homo sapiens, UniProt P63208).
T2 construct: recombinantly purify intact (Skp1^WT) and truncate (ΔSkp1^1−140; lacking H8-helix) forms of Skp1; His6; made in house; host or cells: Escherichia coli BL21 (DE3)
Briefly: LC-MS/MS analysis of in vitro binding. To be noted: overnight incubation.

Another test concerns H358 (p53 null) cells. Briefly: Flow cytometric analysis of apoptosis (annexin V/PI). The format is cell-based. As to conditions: 10 μM dose. Background: In flow cytometry, cells or beads pass a laser one at a time.
For another test, the target named is recombinant GST (Schistosoma japonicum, UniProt P08515). Description: LC-MS/MS analysis of in vitro binding, negative control protein.
For test [3], the target named is T2, Skp1^WT. Description: SPRi assay. The format is binding. On the procedure: (§1) Freshly deposited gold coated standard SPRi chips/slides (Plexera, LLC) were cleaned, and compound(s) at 10 mM concentration in 100% DMSO were spotted on the chips using a micropipette. After this, the slides were left for complete evaporation of DMSO (under vacuum) at room temperature for 2 hrs. After printing, the slides were exposed to UV irradiation 2.4 J/cm^2 (365 nm) in a UV chamber (Amersham life science). The slides were subsequently washed with DMSO, ethanol, and finally with distilled water for 15 minutes (ultrasonically), respectively, to remove non-covalently bound compounds. After drying with nitrogen, the slides were assembled with flow cell and then mounted on SPRi instrument for measurement, or stored at 4°C to be used for later experiments.
All the experiments were carried out using the PlexArray® HT system (Plexera, LLC), which is based on surface plasmon resonance imaging. Oval regions of interests (ROIs) were set as 9 pixels × 7 pixels area in imaging area. ROIs of vehicle (DMSO) were used as controls for measurement of specific signals. All samples were injected with an association and dissociation flow rate of 3 μL s^−1 and at 25°C. A 1:3 mixture of glycine. HCL (pH 4.2) and 0.5% (v/v) SDS, respectively, was used to regenerate the surface and remove bound proteins from the small molecules enabling the sensor chip to be reused for additional analyte injections. […]

For test [4], the target named is T3, Skp1-ΔSkp2^F−box-peptide interaction (Homo sapiens, UniProt P63208).
T3 construct: recombinantly purify intact (Skp1^WT) and truncate (ΔSkp1^1−140; lacking H8-helix) forms of Skp1; His6; made in house; host or cells: Escherichia coli BL21 (DE3)
Briefly: FP-based in vitro competition assay. The test is classed as binding. As to conditions: for Ki: calculated from IC50 with Ki calculator. On the procedure:
FP measurements were performed using an EnVision multilabel Reader (Perkin Elmer). […] Lyophilized F-box-FAM peptide was initially dissolved in a Tris buffer (20 mM Tris-HCl pH 9.0, 150 mM NaCl, 2 mM DTT), and then a stock solution of 100 μM was prepared by subsequent dilutions in a FP buffer (20 mM Tris-HCl pH 8.0, 150 mM NaCl, 2 mM DTT, 5% (v/v) glycerol, 0.001% (v/v) Triton X-100). Specific controls groups included free F-box-FAM (tracer), bound F-box-FAM in the presence of protein (Skp1^WT or ΔSkp1^1−140), and FP buffer for every measurement, allowing accurate estimation of specific polarization.
The selected subset of compounds were initially assayed at final concentration of 200 μM. The compounds were incubated at room temperature with Skp1^WT for 1 hr, followed by the addition of the tracer. […] After incubation for another 2 hrs, FP signals was measured on an EnVision multilabel Reader. The FP response was measured in quadruplicates with controls including free F-box-FAM (tracer), bound Skp1^WT-F-box-FAM, and FP buffer. The resultant FP values were plotted as bar graphs using ORIGIN Lab software.
For gradient FP assay, protein samples were mixed with an appropriate concentrations of ligand over the range of several folds. […] The IC50 value of the compound in the gradient-concentration assay was determined with nonlinear regression and fitting using the following equation in GraphPad Prism® v6.0 (San Diego, CA). Y = Bottom + (Top – Bottom)/(1 + 10^X−LogIC50). […] In short, the relationship between the IC50 of the inhibitor and the Ki of the inhibitor depends on the KD of the fluorescent ligand and the concentration of the receptor.

For another test, the target named is T4, Skp1 (V123D) (Homo sapiens, UniProt P63208, V123D).
T4 construct: His6; made in house; host or cells: Escherichia coli BL21 (DE3)
Briefly: SPRi assay, Skp1 mutant. The format is binding. On the procedure: as §1
(§2) All the experiments were carried out using the PlexArray® HT system (Plexera, LLC), which is based on surface plasmon resonance imaging. Oval regions of interests (ROIs) were set as 9 pixels × 7 pixels area in imaging area. ROIs of vehicle (DMSO) were used as controls for measurement of specific signals. All samples were injected with an association and dissociation flow rate of 3 μL s^−1 and at 25°C. A 1:3 mixture of glycine. HCL (pH 4.2) and 0.5% (v/v) SDS, respectively, was used to regenerate the surface and remove bound proteins from the small molecules enabling the sensor chip to be reused for additional analyte injections.
(§3) The Tris buffer (10 mM Tris-HCl pH 8.0, 100 mM NaCl), without any reducing agent, was used as both analyte and running buffer. Purified recombinant proteins, including Skp1^WT, ΔSkp1^1−140, and any of the desired mutant(s), were in the Tris buffer (10 mM Tris-HCl pH 8.0, 100 mM NaCl). For testing the compound(s), multiple concentrations (0.5 μM, 1 μM, 4 μM and 8 μM) of Skp1^WT or ΔSkp1^1−140 were flowed on the SPRi instrument as analyte to get accurate kinetic parameters. A typical sample injection cycle consists of 300 seconds association phase with the analyte solution and 400 seconds dissociation phase with running buffer at 3 μL s^−1 flow rate. Other purified proteins such as mutant forms of Skp1 were tested to confirm binding pocket specificity. The highest concentration tested for each protein was 8 μM. For data analysis, we choose two software packages, ORIGIN Lab and Data Analysis Module (DAM) of Plexera. All data from SPRi reported here are after subtraction of the background intensity/signal by DAM software. In short, the entire concentration of analyte was fitted with a 1:1 Langmuir interaction integrated rate equation to obtain the kinetic constants.

Test [5] has as its target T1, Skp1^F139A. Briefly: SPRi assay, Skp1 mutant. The test is classed as binding. On the procedure:
as §1, §2, §3

The next test addresses T5, Skp1 (F139D) (Homo sapiens, UniProt P63208, F139D).
T5 construct: His6; made in house; host or cells: Escherichia coli BL21 (DE3)
Description: SPRi assay, Skp1 mutant. The format is binding. On the procedure:
as §1, §2, §3

Another test addresses T6, Skp1 (F101A) (Homo sapiens, UniProt P63208, F101A).
T6 construct: His6; made in house; host or cells: Escherichia coli BL21 (DE3)
Description: SPRi assay, Skp1 mutant. The test is classed as binding. On the procedure: as §1, §2, §3

The target of the next test is T7, Skp1 (F101W_V123T) (Homo sapiens, UniProt P63208, F101W/V123T).
T7 construct: His6; made in house; host or cells: Escherichia coli BL21 (DE3)
Description: SPRi assay, Skp1 mutant. The format is binding. On the procedure: as §1, §2, §3

Another test deals with T8, Skp1 (Q97A) (Homo sapiens, UniProt P63208, Q97A).
T8 construct: His6; made in house; host or cells: Escherichia coli BL21 (DE3)
Briefly: SPRi assay, Skp1 mutant. The format is binding. On the procedure:
as §1, §2, §3

A further test has as its target T9, Skp1 (F101A_F139A) (Homo sapiens, UniProt P63208, F101A/F139A).
T9 construct: His6; made in house; host or cells: Escherichia coli BL21 (DE3)
Briefly: SPRi assay, Skp1 mutant. The test is classed as binding. On the procedure: as §1, §2, §3

T2 sequence (P63208 whole entry, the tested form may be a part): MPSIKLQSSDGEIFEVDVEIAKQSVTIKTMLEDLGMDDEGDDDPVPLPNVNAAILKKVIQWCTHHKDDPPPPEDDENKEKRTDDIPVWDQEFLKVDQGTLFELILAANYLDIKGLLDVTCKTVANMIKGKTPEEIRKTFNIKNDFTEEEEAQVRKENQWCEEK
T3 sequence (P63208 whole entry, stated change not applied, the tested form may be a part): as the sequence (P63208 whole entry, the tested form may be a part) above
T1 sequence (P63208 whole entry F139A): as the sequence (P63208 whole entry, the tested form may be a part) above, with F139A counted along it
Sequence of recombinant GST (P08515 2-218 limits assumed): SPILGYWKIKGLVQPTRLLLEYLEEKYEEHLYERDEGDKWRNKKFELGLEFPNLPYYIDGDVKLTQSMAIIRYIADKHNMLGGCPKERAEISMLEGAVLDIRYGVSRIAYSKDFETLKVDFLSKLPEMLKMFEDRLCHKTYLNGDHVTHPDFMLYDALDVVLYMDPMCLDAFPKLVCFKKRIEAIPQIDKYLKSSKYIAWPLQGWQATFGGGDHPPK
T6 sequence (P63208 whole entry F101A): as the sequence (P63208 whole entry, the tested form may be a part) above, with F101A counted along it
T9 sequence (P63208 whole entry F101A/F139A): as the sequence (P63208 whole entry, the tested form may be a part) above, with F101A, F139A counted along it
T8 sequence (P63208 whole entry Q97A): as the sequence (P63208 whole entry, the tested form may be a part) above, with Q97A counted along it
T7 sequence (P63208 whole entry F101W/V123T): as the sequence (P63208 whole entry, the tested form may be a part) above, with F101W, V123T counted along it
T5 sequence (P63208 whole entry F139D): as the sequence (P63208 whole entry, the tested form may be a part) above, with F139D counted along it
T4 sequence (P63208 whole entry V123D): as the sequence (P63208 whole entry, the tested form may be a part) above, with V123D counted along it

One may read the Kd as the free concentration of one partner at which half of the binding sites on the other are occupied at equilibrium, for simple one-to-one binding. A low value points to tighter binding. In general, Ki refers to the dissociation constant of the complex between target and ligand, obtained from inhibition or displacement. The term IC50 denotes the midpoint of a concentration-inhibition curve. The low end stands for inhibition by little substance, the high end for a need for much substance. On to `Nc1ccc(-c2nc3ccccc3c3[nH]c4ccccc4c23)cc1` [Z0933M], for which the “binding by LC-MS/MS” value is “markedly reduced” on Skp1^F139A [1] and “robust binding” on Skp1^WT [2]. Besides, in the test with H358 (p53 null) cells, the induction of apoptosis entry was “could not induce apoptosis”. Moreover, the “presence in mass spectra (non-specific binding)” value at recombinant GST is on record as “absent”. The Kd at Skp1^WT [3] (SPRi, Skp1^WT) is 54.7 ± 6.68 nM; on Skp1^WT [3] (as given in the summary), about 54 nM; at Skp1 (V123D), 1270 ± 95.5 nM; on Skp1^F139A [5], 455 ± 47.7 nM; on Skp1 (F139D), 1140 ± 95.5 nM; on Skp1 (F101A), 374 ± 45.6 nM. Moreover, the Kd on Skp1 (F101W_V123T) came to 336 ± 36.8 nM; at Skp1 (Q97A), 477 ± 4.95 nM; at Skp1 (F101A_F139A), 799 ± 54.8 nM. Further, the “inhibition of Skp1-ΔSkp2^F−box-peptide interaction” value in [4] (200 μM compound, 25 μM Skp1^WT, 500 nM tracer) is recorded as “almost completely disrupted”. In addition, the inhibition constant (Ki) was 231 ± 18 nM in test [4] and about 231 nM in [4] (figure). Besides, the IC50 in [4] (dose-response FP, Skp1^WT 25 μM, tracer 500 nM) is about 25000 nM.

Source of the values: publication PMC9249674, “A small-molecule Skp1 inhibitor elicits cell death by p53-dependent mechanism” (iScience, 2022).
